Patent publication US6685617B1, “Inhibitors of α4β1 mediated cell adhesion” (Pharmacia & Upjohn Company, priority 1998, dated 2004)

Legend:
[1] = target: T1, α4β1 integrin (Jurkat T-cell adhesion to IL-1 stimulated endothelial cell monolayers) (Homo sapiens, UniProt P05556+P13612); test: Jurkat-endothelial cell adhesion assay (Jurkat EC); format: cell-based; conditions: Jurkat cells on IL-1 stimulated human umbilical vein endothelial cells; read-out: JK/EC (Jurkat EC Assay IC50 value range)
T1 construct: a T-cell line, Jurkat, known to express the α4β1 integrin; host or cells: Jurkat T-cell line
T1 sequence (P13612 34-1032): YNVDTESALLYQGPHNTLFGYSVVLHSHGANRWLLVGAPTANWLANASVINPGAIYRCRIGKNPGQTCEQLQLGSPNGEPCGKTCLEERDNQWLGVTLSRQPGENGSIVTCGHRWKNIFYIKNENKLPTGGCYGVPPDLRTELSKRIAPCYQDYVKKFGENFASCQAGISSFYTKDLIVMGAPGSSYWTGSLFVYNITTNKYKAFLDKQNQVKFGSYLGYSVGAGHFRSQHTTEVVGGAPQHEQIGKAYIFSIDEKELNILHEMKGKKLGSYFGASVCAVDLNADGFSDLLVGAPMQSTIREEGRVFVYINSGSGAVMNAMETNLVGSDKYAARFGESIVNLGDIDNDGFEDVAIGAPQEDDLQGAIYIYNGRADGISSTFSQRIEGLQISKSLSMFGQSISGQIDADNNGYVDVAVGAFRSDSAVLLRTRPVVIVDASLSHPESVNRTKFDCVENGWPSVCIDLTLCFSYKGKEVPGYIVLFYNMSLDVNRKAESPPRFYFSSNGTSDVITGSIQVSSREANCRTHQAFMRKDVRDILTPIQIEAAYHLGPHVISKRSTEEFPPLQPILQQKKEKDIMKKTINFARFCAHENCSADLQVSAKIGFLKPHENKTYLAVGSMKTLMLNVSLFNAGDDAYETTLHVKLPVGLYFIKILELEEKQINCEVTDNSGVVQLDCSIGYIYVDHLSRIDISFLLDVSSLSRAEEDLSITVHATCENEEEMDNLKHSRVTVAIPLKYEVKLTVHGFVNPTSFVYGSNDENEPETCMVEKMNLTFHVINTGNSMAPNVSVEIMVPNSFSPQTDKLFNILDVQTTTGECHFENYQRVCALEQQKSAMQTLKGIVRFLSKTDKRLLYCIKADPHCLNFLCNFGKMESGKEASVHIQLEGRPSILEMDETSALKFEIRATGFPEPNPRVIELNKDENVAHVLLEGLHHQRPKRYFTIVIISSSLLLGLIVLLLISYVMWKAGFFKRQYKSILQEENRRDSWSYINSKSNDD
T1 sequence (P05556 21-798): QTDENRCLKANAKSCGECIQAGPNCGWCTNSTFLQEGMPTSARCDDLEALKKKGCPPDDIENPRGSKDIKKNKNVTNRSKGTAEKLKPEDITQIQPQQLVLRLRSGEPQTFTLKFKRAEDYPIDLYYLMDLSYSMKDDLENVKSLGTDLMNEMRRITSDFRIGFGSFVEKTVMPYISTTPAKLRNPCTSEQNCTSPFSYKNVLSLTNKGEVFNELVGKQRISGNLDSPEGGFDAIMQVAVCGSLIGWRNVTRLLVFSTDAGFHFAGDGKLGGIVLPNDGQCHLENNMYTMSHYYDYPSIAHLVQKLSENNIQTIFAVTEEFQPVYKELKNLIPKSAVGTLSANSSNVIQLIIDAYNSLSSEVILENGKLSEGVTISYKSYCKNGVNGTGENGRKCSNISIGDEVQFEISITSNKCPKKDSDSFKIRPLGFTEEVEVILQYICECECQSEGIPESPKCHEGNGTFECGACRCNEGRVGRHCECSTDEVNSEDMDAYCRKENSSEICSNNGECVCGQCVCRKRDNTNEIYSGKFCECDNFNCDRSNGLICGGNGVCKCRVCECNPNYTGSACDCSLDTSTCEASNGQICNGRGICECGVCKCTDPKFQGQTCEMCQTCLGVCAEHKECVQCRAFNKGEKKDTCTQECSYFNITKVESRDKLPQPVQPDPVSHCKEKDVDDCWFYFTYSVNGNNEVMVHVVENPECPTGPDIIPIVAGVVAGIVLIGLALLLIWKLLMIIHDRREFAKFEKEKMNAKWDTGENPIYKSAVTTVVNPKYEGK
Summary of the method: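 BCECF-AM-labelled Jurkat cells were mixed with compound, generally 100, 20, 5 and 1.25 μM, and added to HUVEC monolayers (passage ≤6) pre-stimulated 4 hr at 37° C with 0.1 ng/ml IL-1. After 5 min on ice and 20 min at 37° C, washed wells were read by fluorescence as % adhesion relative to no compound.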

[2] = target: T2, α4β1 integrin (Jurkat cell adhesion to immobilized CS-1 derived peptide CLHPGEILDVPST) (Homo sapiens, UniProt P05556+P13612); test: Jurkat-CS-1 assay; format: cell-based; conditions: Jurkat cells on CS-1 peptide coated plates; read-out: JK/CS-1 (Jurkat CS-1 Assay IC50 value range)
T2 construct: 100 μl of Jurkat cells (2.5×10^6 cells/ml) in DMEM plus BSA; host or cells: Jurkat T-cell line
T2 sequence (P13612 34-1032): as the sequence (P13612 34-1032) above
T2 sequence (P05556 21-798): as the sequence (P05556 21-798) above
Summary of the method: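 CS-1 peptide was SPDP-crosslinked onto HSA-coated plates and blocked with BSA. Jurkat cells (2.5×10^6 cells/ml) in DMEM/BSA were mixed with compound, generally at 100, 20, 5 and 1.25 μM, and allowed to adhere for 1 hr at 37° C. Bound cells were fixed, stained with toluidine blue and quantified by OD590.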

SMILES	IC50 [1]	IC50 [2]
CC1(C)SC(C)(C)N(C(=O)CCCC(=O)O)[C@@H]1C(=O)N[C@@H](Cc1ccc(NC(=O)c2c(Cl)cccc2Cl)cc1)C(=O)O (relative stereo) [Example 88, [R-(R*,S*)]-4-[[[1-Carboxy-2-[4-[(2,6-dichlorobenzoyl)amino]phenyl]ethyl]amino]carbonyl]-2,2,5,5-tetramethyl-δ-oxo-3-thiazolidinepentanoic Acid]	≥ 1 µM	0.05 to 0.75 µM
CN1C(=O)CC(C(=O)N[C@@H](Cc2ccc(NC(=O)c3c(Cl)cccc3Cl)cc2)C(=O)O)C1c1ccc2c(c1)OCO2 (stereo partly drawn) [Example 171, N-[[2-(1,3-Benzodioxol-5-yl)-1-methyl-5-oxo-3-pyrrolidinyl]carbonyl]-4-[(2,6-dichlorobenzoyl)amino]-L-phenylalanine]	≥ 1 µM	0.05 to 0.75 µM
CN1C(=O)CCC1(CCC(=O)O)CCC(=O)N[C@@H](Cc1ccc(OCc2c(Cl)cccc2Cl)cc1)C(=O)O (stereo partly drawn) [Example 107, 2-[3-[[(1S)-1-Carboxy-2-[4-[(2,6-dichlorophenyl)methoxy]phenyl]ethyl]amino]-3-oxo-propyl]-1-methyl-5-oxo-2-pyrrolidinepropanoic Acid]	≥ 1 µM	0.05 to 0.75 µM
O=C(Nc1ccc(C[C@H](NC(=O)[C@H]2CSCN2C(=O)OCCN2CCOCC2)C(=O)O)cc1)c1c(Cl)cccc1Cl (relative stereo) [Example 25, [S-(R*,R*)]-4-[[[1-Carboxy-2-[-4-[(2,6-dichlorobenzoyl)amino]phenyl]ethyl]amino]carbonyl]-3-thiazolidinecarboxylic Acid 3-[2-(4-Morpholinyl)ethyl]ester]	≤ 0.25 µM	≤ 0.05 µM
O=C(O)CCC(=O)N1CCC[C@H]1C(=O)N[C@@H](Cc1ccc(NC(=O)c2c(Cl)cccc2Cl)cc1)C(=O)O [Example 224]	≥ 1 µM	0.05 to 0.75 µM
O=C(O)c1ccc2cc(C(=O)N3CCCC(C(=O)N[C@@H](Cc4ccc(NC(=O)c5c(Cl)cccc5Cl)cc4)C(=O)O)C3)ccc2c1 (stereo partly drawn) [Example 206]	0.25 to 1 µM	0.05 to 0.75 µM
O=C(Nc1ccc(C[C@H](NC(=O)[C@H]2CCCN2C(=O)c2cccnc2)C(=O)O)cc1)c1c(Cl)cccc1Cl [Example 259]	≤ 0.25 µM	0.05 to 0.75 µM
COc1ccc(C(=O)N2CCC[C@H]2C(=O)N[C@@H](Cc2ccc(NC(=O)c3c(Cl)cccc3Cl)cc2)C(=O)O)cc1OC [Example 233]	≥ 1 µM	0.05 to 0.75 µM
CN1C(=O)CCC1(CCC(=O)O)CCC(=O)N[C@@H](Cc1ccc(NC(=O)c2c(Cl)cccc2Cl)cc1)C(=O)O (stereo partly drawn) [Example 111, 2-[3-[[(1S)-1-Carboxy-2-[4-[(2,6-dichlorobenzoyl)amino]phenyl]ethyl]amino]-3-oxo-propyl]-1-methyl-5-oxo-2-pyrrolidinepropanoic Acid]	0.25 to 1 µM	0.05 to 0.75 µM
COC(=O)[C@H](Cc1ccc(NC(=O)c2c(Cl)cccc2Cl)cc1)NC(=O)[C@H]1CSC(C)(C)N1C(=O)OC(C)(C)C (relative stereo) [Example 75, [S-(R*,R*)]-4-[[[1-[[4-[(2,6-Dichlorobenzoyl)amino]phenyl]methyl]-2-methoxy-2-oxo-ethyl]amino]carbonyl]-2,2-dimethyl-3-thiazolidinecarboxylic Acid 3-(1,1-Dimethylethyl)ester]	≥ 1 µM	≥ 0.75 µM
O=C(O)/C=C\C(=O)N1CCCC(C(=O)N[C@@H](Cc2ccc(NC(=O)c3c(Cl)cccc3Cl)cc2)C(=O)O)C1 (stereo partly drawn) [Example 197]	≥ 1 µM	≥ 0.75 µM
CC(=O)N1CSC[C@@H]1C(=O)N[C@@H](Cc1ccc(NC(=O)c2c(Cl)cccc2Cl)cc1)C(=O)O [Example 62, N-[[(4S)-3-Acetyl-4-thiazolidinyl]carbonyl]-4-[(2,6-dichlorobenzoyl)amino]-L-phenylalanine]	≤ 0.25 µM	≤ 0.05 µM
CCN(CC)C(=O)N1CSC[C@@H]1C(=O)N[C@@H](Cc1ccc(NC(=O)c2c(Cl)cccc2Cl)cc1)C(=O)O [Example 53, 4-[(2,6-Dichlorobenzoyl)amino]-N-[[(4S)-3-[(diethylamino)carbonyl]-4-thiazolidinyl]carbonyl]-L-phenylalanine]	≤ 0.25 µM	≤ 0.05 µM
O=C(O)CCC(=O)N1CSC[C@@H]1C(=O)N[C@@H](Cc1ccc(OCc2c(Cl)cccc2Cl)cc1)C(=O)O (relative stereo) [Example 64, [S-(R*,R*)]-4-[[[1-Carboxy-2-[4-[(2,6-dichlorophenyl)methoxy]phenyl]ethyl]amino]carbonyl]-γ-oxo-3-thiazolidinebutanoic Acid]	≤ 0.25 µM	≤ 0.05 µM
O=C(Nc1ccc(C[C@H](NC(=O)[C@@H]2CSCN2C(=O)c2cc(O)c3ccccc3n2)C(=O)O)cc1)c1c(Cl)cccc1Cl [Example 242]	≥ 1 µM	0.05 to 0.75 µM
CCOC(=O)N1[C@@H](C(=O)N[C@@H](Cc2ccc(NC(=O)c3c(Cl)cccc3Cl)cc2)C(=O)O)CSC12CCCCC2 (relative stereo) [Example 80, [S-(R*,R*)]-3-[[[1-Carboxy-2-[4-[(2,6-dichlorobenzoyl)amino]phenyl]ethyl]amino]carbonyl]-1-thia-4-azaspiro[4.5]decane-4-carboxylic Acid 4-Ethyl Ester]	≥ 1 µM	≥ 0.75 µM
CC(C)(CC(=O)O)CC(=O)N1CCCC(C(=O)N[C@@H](Cc2ccc(NC(=O)c3c(Cl)cccc3Cl)cc2)C(=O)O)C1 (stereo partly drawn) [Example 196]	≥ 1 µM	0.05 to 0.75 µM
COC(=O)[C@H](Cc1ccc(NC(=O)c2c(Cl)cccc2Cl)cc1)NC(=O)[C@H]1CSCN1C(=O)NC(C)(C)C [Example 6, 4-[(2,6-Dichlorobenzoyl)amino]-N-[[(4S)-3-[((1,1-dimethylethyl)amino)carbonyl]-4-thiazolidinyl]carbonyl]-L-phenylalanine Methyl Ester]	≥ 1 µM	≥ 0.75 µM
O=C(O)[C@H](Cc1ccc(OCc2c(Cl)cccc2Cl)cc1)NC(=O)[C@H]1CSCN1C(=O)OCCN1CCOCC1 (relative stereo) [Example 37]	≤ 0.25 µM	≤ 0.05 µM
CCOC(=O)N1CSC[C@@H]1C(=O)N[C@@H](Cc1ccc(NC(=O)c2c(Cl)cccc2Cl)cc1)C(=O)OCc1ccncc1 [Example 154, [S-(R*,R*) 4-[[[1-[4-[(2,6-Dichlorobenzoyl)amino]phenyl]methyl]-2-[(4-pyridinyl)methoxy]-2-oxoethyl]amino]carbonyl]-3-thiazolidinecarboxylic Acid 3-Ethyl Ester]	0.25 to 1 µM	≤ 0.05 µM
O=C(O)c1cccc(C(=O)N2CCCC[C@H]2C(=O)N[C@@H](Cc2ccc(NC(=O)c3c(Cl)cccc3Cl)cc2)C(=O)O)n1 [Example 186]	≤ 0.25 µM	≤ 0.05 µM
COCCC(=O)N1CCCC[C@H]1C(=O)N[C@@H](Cc1ccc(NC(=O)c2c(Cl)cccc2Cl)cc1)C(=O)O [Example 177]	≥ 1 µM	≤ 0.05 µM
O=C(O)c1cncc(C(=O)N2CCC[C@H]2C(=O)N[C@@H](Cc2ccc(NC(=O)c3c(Cl)cccc3Cl)cc2)C(=O)O)c1 [Example 237]	≥ 1 µM	0.05 to 0.75 µM
COC(=O)CCC(=O)N1CSC[C@@H]1C(=O)N[C@@H](Cc1ccc(NC(=O)c2c(Cl)cccc2Cl)cc1)C(=O)OC (relative stereo) [Example 8, [S-(R*,R*)]-4-[[[1-[[4-[(2,6-Dichlorobenzoyl)amino]phenyl]methyl]-2-methoxy-2-oxoethyl]amino]carbonyl]-γ-oxo-3-thiazolidinebutanoic Acid 3-Methyl Ester]	0.25 to 1 µM	0.05 to 0.75 µM
